Measured values: patent US8193362B2 (Syngenta Crop Protection LLC, priority 2008, dated 2012)
Counter-ions that a name gives are not always drawn.

Legend:
Assay type in all cases: in vivo
[1] = test system: Heliothis virescens (Tobacco Budworm); experiment: Comparative Heliothis virescens egg test in petri dishes on artificial diet; settings: 144 h, 6 days incubation, read-out: percentage of dead larvae; for pest or weed control at 0.8 ppm: concentration 0.8 ppm; for pest or weed control at 1.5 ppm: concentration 1.5 ppm; for pest or weed control at 3 ppm: concentration 3 ppm; for pest or weed control at 6 ppm: concentration 6 ppm
Method: This Example illustrates the pesticidal/insecticidal properties of compounds of formula (I) compared to Comparative Compound A and Comparative Compound B. Comparative Compound A and Comparative Compound B were disclosed in WO 2006/003494.
(§1) Heliothis virescens (Tobacco Budworm):
Fresh eggs (0-24 h old) on filterpaper were placed in petri dishes on top of a layer of artificial diet and treated with diluted test solutions by pipetting. After an incubation period of 6 days, samples were checked for larval mortality and growth regulation. The percentage of dead larvae was assessed.

[2] = test system: Spodoptera littoralis (Egyptian Cotton Leafworm); experiment: Spodoptera littoralis cotton leaf disc spray test; settings: foliar, 72 h, 200 ppm spray on cotton leaf discs, L1 larvae, mortality, feeding behavior, growth regulation 3 DAT
From the text: Spodoptera littoralis (Egyptian Cotton Leafworm)
Cotton leaf discs were placed on agar in a 24-well microtiter plate and sprayed with test solutions at an application rate of 200 ppm. After drying, the leaf discs were infested with 5 L1 larvae. The samples were checked for mortality, feeding behavior, and growth regulation 3 days after treatment (DAT).

[3] = test system: Plutella xylostella (Diamond Back Moth); experiment: Plutella xylostella L2 larvae test on artificial diet in 24-well microtiter plate; settings: 144 h, 200 ppm (concentration in well 18 ppm), 6 days, larval mortality, growth regulation
Method: Plutella xylostella (Diamond Back Moth):
(§2) A 24-well microtiter plate (MTP) with artificial diet was treated with test solutions at an application rate of 200 ppm (concentration in well 18 ppm) by pipetting. After drying, the MTP's were infested with L2 larvae (7-12 per well). After an incubation period of 6 days, samples were checked for larval mortality and growth regulation.

[4] = test system: Diabrotica balteata (Corn Root Worm); experiment: Diabrotica balteata L2 larvae test on artificial diet in 24-well microtiter plate; settings: 120 h, 200 ppm (concentration in well 18 ppm), 5 days, larval mortality, growth regulation
Method: Diabrotica balteata (Corn Root Worm):
as §2, with “with” for “with L2”, “(L2) (6-10” for “(7-12”, “5” for “6”, “mortality,” for “mortality”

[5] = test system: Heliothis virescens (Tobacco Budworm); experiment: Heliothis virescens egg test on artificial diet in 24-well microtiter plate; settings: 96 h, 200 ppm (concentration in well 18 ppm), eggs 0-24 h old, 4 days, egg mortality, larval mortality, growth regulation
Method: as §1
Eggs (0-24 h old) were placed in 24-well microtiter plate on artificial diet and treated with test solutions at an application rate of 200 ppm (concentration in well 18 ppm) by pipetting. After an incubation period of 4 days, samples were checked for egg mortality, larval mortality and growth regulation.

| SMILES | pest or weed control at 0.8 ppm [1] [%] | pest or weed control at 1.5 ppm [1] [%] | pest or weed control at 3 ppm [1] [%] | pest or weed control at 6 ppm [1] [%] | pest or weed control at 200 ppm [2] [%] | pest or weed control at 200 ppm [3] [%] | pest or weed control at 200 ppm [4] [%] | pest or weed control at 200 ppm [5] [%] | pest or weed control at 200 ppm ([2]; in Gossypium hirsutum) [%] | pest or weed control at 200 ppm ([4]; in Zea mays) [%] |
| --- | --- | --- | --- | --- | --- | --- | --- | --- | --- | --- |
| O=C(Nc1ccc(Cl)nc1C1CCN(C/C=C/c2ccc(Cl)cc2)CC1)c1ccnc(Cl)c1 [Comparative Compound A, reference compound] | 30 | 50 | 70 | 93 |  |  |  |  |  |  |
| O=C(Nc1cc(Cl)cnc1C1CCN(C/C=C/c2ccc(Cl)cc2)CC1)c1ccnc(Cl)c1 [Comparative Compound B, reference compound] | 0 | 50 | 93 | 100 |  |  |  |  |  |  |
| O=C(Nc1ccc(C(F)(F)F)nc1C1CCN(C/C=C/c2ccc(Cl)cc2)CC1)c1ccnc(Cl)c1 [Compound A14, 2-chloro-N-{1′-[(E)-3-(4-chloro-phenyl)-allyl]-6-trifluoromethyl-1′,2′,3′,4′,5′,6′-hexahydro-[2,4′]bipyridinyl-3-yl}-isonicotinamide] | 100 | 100 | 100 | 100 | ≥ 80 |  |  |  |  |  |
| O=C(Nc1cc(F)c(Cl)nc1C1CCN(C/C=C/c2ccc(Cl)cc2)CC1)c1ccnc(Cl)c1 [Compound B1, 2-chloro-N-{6-chloro-1′-[(E)-3-(4-chloro-phenyl)-allyl]-5-fluoro-1′,2′,3′,4′,5′,6′-hexahydro-[2,4′]bipyridinyl-3-yl}-isonicotinamide] | 80 | 100 | 100 | 100 | ≥ 80 | ≥ 80 | ≥ 80 | ≥ 80 |  |  |
| O=C(Nc1cc(Cl)c(Cl)nc1C1CCN(C/C=C/c2ccc(Cl)cc2)CC1)c1ccnc(Cl)c1 [Compound C1, 2-chloro-N-{5,6-dichloro-1′-[(E)-3-(4-chloro-phenyl)-allyl]-1′,2′,3′,4′,5′,6′-hexahydro-[2,4′]bipyridinyl-3-yl}-isonicotinamide] | 100 | 100 | 100 | 100 | ≥ 80 |  | ≥ 80 |  |  |  |
| O=C(Nc1cc(Cl)c(C(F)(F)F)nc1C1CCN(C/C=C/c2ccc(Cl)cc2)CC1)c1ccnc(Cl)c1 [Compound H1, 2-chloro-N-{5-chloro-1′-[(E)-3-(4-chloro-phenyl)-allyl]-6-trifluoromethyl-1′,2′,3′,4′,5′,6′-hexahydro-[2,4′]bipyridinyl-3-yl}-isonicotinamide] | 40 | 78 | 100 | 100 | ≥ 80 | ≥ 80 |  | ≥ 80 |  |  |
| O=C(Nc1c(C2CCN(C/C=C/c3ccc(Cl)cc3)CC2)nc(Cl)c(Cl)c1Cl)c1ccnc(Cl)c1 [Compound J1, 2-chloro-N-{4,5,6-trichloro-1′-[(E)-3-(4-chlorophenyl)-allyl]-1′,2′,3′,4′,5′,6′-hexahydro-[2,4′]bipyridinyl-3-yl}-isonicotinamide] | 40 | 90 | 93 | 100 | ≥ 80 | ≥ 80 |  | ≥ 80 |  |  |
| O=C(Nc1c(F)cc(C(F)(F)F)nc1C1CCN(C/C=C/c2ccc(Cl)cc2)CC1)c1ccnc(Cl)c1 [Compound K1, 2-chloro-N-{1′-[(E)-3-(4-chloro-phenyl)-allyl]-4-fluoro-6-trifluoromethyl-1′,2′,3′,4′,5′,6′-hexahydro-[2,4′]bipyridinyl-3-yl}-isonicotinamide] |  |  |  |  | ≥ 80 | ≥ 80 |  | ≥ 80 |  |  |
| O=C(Nc1cc(C(F)(F)F)c(F)nc1C1CCN(C/C=C/c2ccc(Cl)cc2)CC1)c1ccnc(Cl)c1 [Compound M1, 2-chloro-N-{1′-[(E)-3-(4-chloro-phenyl)-allyl]-6-fluoro-5-trifluoromethyl-1′,2′,3′,4′,5′,6′-hexahydro-[2,4′]bipyridinyl-3-yl}-isonicotinamide] |  |  |  |  | ≥ 80 | ≥ 80 | ≥ 80 | ≥ 80 |  |  |
| O=C(Nc1cc(F)c(F)nc1C1CCN(C/C=C/c2ccc(Cl)cc2)CC1)c1ccnc(Cl)c1 [Compound N1, 2-chloro-N-{1′-[(E)-3-(4-chloro-phenyl)-allyl]-5,6-difluoro-1′,2′,3′,4′,5′,6′-hexahydro-[2,4′]bipyridinyl-3-yl}-isonicotinamide] |  |  |  |  | ≥ 80 | ≥ 80 | ≥ 80 | ≥ 80 |  |  |
| O=C(Nc1ccc(C(F)F)nc1C1CCN(C/C=C/c2ccc(Cl)cc2)CC1)c1ccnc(Cl)c1 [Compound O1, 2-chloro-N-{1′-[(E)-3-(4-chloro-phenyl)-allyl]-6-difluoromethyl-1′,2′,3′,4′,5′,6′-hexahydro-[2,4]bipyridinyl-3-yl}-isonicotinamide] |  |  |  |  | ≥ 80 | ≥ 80 |  | ≥ 80 |  |  |
| O=C(Nc1ccc(OC(F)F)nc1C1CCN(C/C=C/c2ccc(Cl)cc2)CC1)c1ccnc(Cl)c1 [Compound P1, 2-chloro-N-{1′-[(E)-3-(4-chloro-phenyl)-allyl]-6-difluoromethoxy-1′,2′,3′,4′,5′,6′-hexahydro-[2,4′]bipyridinyl-3-yl}-isonicotinamide] |  |  |  |  | ≥ 80 | ≥ 80 | ≥ 80 | ≥ 80 |  |  |
| O=C(Nc1ccc(C(F)(F)F)nc1C1CCN(C/C=C/c2ccc(Cl)cc2)CC1)c1ccnc(Cl)c1 [Compound Q1, 2-chloro-N-{1′-[(E)-3-(4-chloro-phenyl)-allyl]-6-trifluoromethyl-1′,2′,3′,4′,5′,6′-hexahydro-[2,4′]bipyridinyl-3-yl}-isonicotinamide 2-ethyl-hexanoic acid salt] |  |  |  |  |  | ≥ 80 | ≥ 80 | ≥ 80 |  |  |
| O=C(Nc1cc(Cl)c(Cl)nc1C1CCN(C/C=C/c2ccc(Cl)cc2)CC1)c1ccnc(Cl)c1 [Compound Q20] |  |  |  |  |  | ≥ 80 |  | ≥ 80 |  |  |
| O=C(Nc1ccc(C(F)(F)F)nc1C1CC[N+]([O-])(C/C=C/c2ccc(Cl)cc2)CC1)c1ccnc(Cl)c1 (stereo not shown) [Compound R1] |  |  |  |  |  | ≥ 80 |  | ≥ 80 | ≥ 80 | ≥ 80 |
| O=C(Nc1cc(Cl)c(Cl)nc1C1CC[N+]([O-])(C/C=C/c2ccc(Cl)cc2)CC1)c1ccnc(Cl)c1 (stereo not shown) [Compound R2] |  |  |  |  | ≥ 80 | ≥ 80 | ≥ 80 | ≥ 80 |  |  |
| O=C(Nc1ccc(C(F)(F)F)nc1C1CC[N+]([O-])(C/C=C/c2ccc(C(F)(F)F)cc2)CC1)c1ccnc(Cl)c1 (stereo not shown) [Compound R3] |  |  |  |  | ≥ 80 | ≥ 80 | ≥ 80 | ≥ 80 |  |  |
| O=C(Nc1cc(C(F)(F)F)c(Cl)nc1C1CC[N+]([O-])(C/C=C/c2ccc(Br)cc2)CC1)c1ccnc(Cl)c1 (stereo not shown) [Compound R4] |  |  |  |  | ≥ 80 | ≥ 80 |  | ≥ 80 |  |  |
